Data on one molecule can be found in publication PMC10685318, “Trans-cyclosulfamidate mannose-configured cyclitol allows isoform-dependent inhibition of GH47 α-D-mannosidases through a bump–hole strategy” (Chemical Science, 2023).

Molecules are shown by their SMILES. pKd: −log10 of the molar value.

Data set [1] is described as follows: Chemical stability of the final compounds on storage. It is filed as physicochemical. From the text: 1,6-Cis-manno-cyclosulfate, 4, and 1,6-trans-manno-cyclosulfate, 5, were synthesized from mannose-configured cis-diol and trans-diol, respectively (ESI, Scheme S1 ^†).
Another data set has as its target CkGH47 WT (Caulobacter sp. K31, UniProt B0SWV2). The experiment in a line: Inhibition of CkGH47 WT monitored by enzymatic conversion of α-1,2-mannobiose to mannose. The settings on record: for inhibition of the wild-type GH47 model enzyme: even at high inhibitor concentrations. It is filed as biochemical, Caulobacter K31 strain. Here is the method: (§1) Trans-Cyclosulfamidate Cyclitols Males et al.
Figure S4. Inhibition of CkGH47 by 6 monitored by the enzymatic conversion of mannobiose to mannose. 3 concentrations of the […]
and the reaction was incubated for 1 hour at 22 °C. The enzyme was heat denatured (90 °C for 5 minutes). Using the mannose detection kit, NADPH production at 340 nm was measured and converted to mannose concentration using a standard curve of […]
Figure S5. Docking of 6, in pink, into the crystal structure of Caulobacter GH47 (PDB ID: 4AYO), in gold, showing the distance between the oxygen of 6 and L310. Left: 6 was docked into the CkGH47 enzyme active site by least squares fit superposition in coot against the CkGH47 and kifunensine complex (PDB ID 5NE5). Right: Position of CkGH47 WT crystal structures of the inhibitors 6 (pink) and kifunensine (green); native is shown in gold (PDB ID: 4AYO) and CkGH47 in complex with kifunensine is shown in orange (PDB ID: 5NE5); there are 2 alternate conformations of leucine each with 50% occupancy in the crystal structure. […]
(§2) 2.1 Biochemical and biological methods
(§3) To obtain Michaelis-Menten kinetics
(§4) Lastly, to achieve an inhibition constant, the
(§5) The gradient of the graph, V0/Vi
(§6) After taking each time point, the sample was heat denatured at 95 °C for 5 minutes. The reactions were conducted in triplicate and averaged. […]
(§7) microplate spectrophotometer (BioTek). The mannose detection kit (Megazyme) was used to detect […]
(§8) dehydrogenase, was monitored at 340 nm. The absorbance after hexokinase was added to the mixture […]
(§9) 2.1.2 Isothermal titration calorimetry
(§10) MicroCal ITC200 calorimeter at 25 °C over 20 injections. The experiment was duplicated to obtain a […]
(§11) the MicroCal PEAK-ITC analysis software.
(§12) 2.2 Crystallographic data collection and refinement of CkGH47
(§13) 3′ and the reverse primer was 5′-[…]-3′. Protein production and purification was followed as described previously.[3]
(§14) Reference data in the form of a
(§15) Refinement of the model was conducted […]
(§16) conformation was conducted using […]. Details of the data collection and refinement statistics […]

In the next data set the target is T1, CkGH47 L310S (Caulobacter sp. K31, UniProt B0SWV2, L310S).
T1 sequence (B0SWV2 25-462 L310S): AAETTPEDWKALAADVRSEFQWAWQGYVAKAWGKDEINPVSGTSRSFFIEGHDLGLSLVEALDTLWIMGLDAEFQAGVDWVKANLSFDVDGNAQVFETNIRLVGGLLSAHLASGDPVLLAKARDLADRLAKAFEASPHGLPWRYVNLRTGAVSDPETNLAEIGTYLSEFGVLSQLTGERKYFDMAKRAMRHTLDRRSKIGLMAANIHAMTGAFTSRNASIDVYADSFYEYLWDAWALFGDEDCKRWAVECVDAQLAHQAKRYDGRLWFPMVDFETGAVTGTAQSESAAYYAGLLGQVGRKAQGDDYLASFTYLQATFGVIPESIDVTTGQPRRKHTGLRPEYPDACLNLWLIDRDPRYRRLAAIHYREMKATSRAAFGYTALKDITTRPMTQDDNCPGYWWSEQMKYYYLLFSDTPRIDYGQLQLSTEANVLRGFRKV
Kind of data set: Isothermal titration calorimetry. It is filed as binding, Caulobacter K31 strain.
From the text: as §1
Figure S6. Isothermal titration calorimetry binding thermodynamics between CkGH47 L310S and 6. A. raw data injection profile;
B. Titration curve. N = 1.01 ± 0.02 sites, ΔH = -7.39 ± 0.19 kcal mol-1.
Figure S7. Overlay of the human GH47 α-1,2-mannosidase structures highlighting the conserved active site. Crystal structure of ERManI is in orange (PDB ID: 1FMI); the remaining structures were predicted by Alphafold[5], in light blue is GMIB, in dark blue is GMIA, in purple is GMIC, in yellow is EDEM2, in red is EDEM3 and in pink is EDEM1. A. The crystal structure from this work of CkGH47 and 3 is in green. Residues annotated according to the numbering of CkGH47. B. The human GH47 enzymes are superposed minus the CkGH47 enzyme; the residues are annotated according to the numbering of HsERManI. […]
as §2, §3, §4, §5, §6, §7, §8, §9, §10, §11, §12, §13, §14, §15, §16
Figures of the structure were produced by using CCP4mg.

The subject of data set [2] is GH47 model enzyme from Caulobacter K31 strain. Kind of data set: Crystal soaks with WT GH47. It is filed as binding.
The mark [3] stands for this setting: isothermal titration calorimetry.

Sequence of CkGH47 WT (B0SWV2 entry or part of it): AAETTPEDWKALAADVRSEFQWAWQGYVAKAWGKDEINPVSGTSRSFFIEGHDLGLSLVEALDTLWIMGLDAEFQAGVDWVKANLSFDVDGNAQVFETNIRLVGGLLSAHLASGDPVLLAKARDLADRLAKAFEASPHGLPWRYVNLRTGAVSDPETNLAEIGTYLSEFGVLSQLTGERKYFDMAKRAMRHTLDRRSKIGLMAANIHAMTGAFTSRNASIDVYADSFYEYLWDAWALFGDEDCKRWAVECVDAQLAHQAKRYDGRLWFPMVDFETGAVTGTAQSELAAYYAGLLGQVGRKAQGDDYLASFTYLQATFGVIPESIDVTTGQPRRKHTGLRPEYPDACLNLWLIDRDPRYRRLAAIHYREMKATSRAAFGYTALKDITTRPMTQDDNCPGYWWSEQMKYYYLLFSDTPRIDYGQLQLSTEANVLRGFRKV

Consider `O=S1(=O)N[C@@H]2[C@@H](O)[C@@H](O)[C@H](O)[C@@H](CO)[C@H]2O1` [compound 6, 1,6-trans-manno-cyclosulfamidate], for which the chemical stability entry in data set [1] is reported as “chemically stable”. Besides, the “α-1,2-mannobiose hydrolysed by the WT GH47 mannosidase to mannose” value at CkGH47 WT (after the addition of 1 mM 6) is 82%. In addition, the “inhibition of the wild-type GH47 model enzyme” value against CkGH47 WT was “no significant inhibition”. Moreover, at CkGH47 WT (listed as 1,6-trans-cyclic sulfamidate), the “inhibition of the wild-type GH47 model enzyme” value is “does not inhibit”. For the same molecule, the pKd on CkGH47 L310S was 6.01. On CkGH47 L310S (setting [3]), the N was 1.01 ± 0.02 sites and the ΔH was -7.39 ± 0.19 kcal/mol. For the same molecule, in data set [2], the “binding in crystal soaks” value was “no binding”.
